{"source": "patent US20080287481A1", "about": "“PROCESS FOR THE PREPARATION OF DES[…] MIXTURES” (priority 2006, published 2008)", "conditions": "all storage conditions of the table; consistency in the IR pattern", "from_the_text": "The term “stable” is used to describe an intimate mixture of desloratadine Form I and Form II that maintains the initial weight ratio of forms during formulation into a pharmaceutical dosage form and thereafter during a commercially useful period of normal storage and use, such as about one year, about 18 months, about two years, or any other desired period. […] Stability testing procedures are well known in the pharmaceutical industry."}
{"compound": "Clc1ccc2c(c1)CCc1cccnc1C2=C1CCNCC1", "note": "[8-chloro-6,11-dihydro-11-(4-piperidylidene)-5H-benzo[5,6]cyclohepta[1,2-b]pyridine]", "values": [{"measurement": "interconversion of forms during the storage period", "value": "no interconversion of forms"}]}
